The values below are quoted from earlier work in patent publication US20250277001A1, “PEPTIDE DERIVATIVES AND RELATED USES AS OREXIN AGONISTS” (CENTESSA PHARMACEUTICALS (UK) LIMITED, priority 2022, published 2025).

Each structure is given as a SMILES string. Read-outs that look alike come from different tables or passages of the source.

For series [1], the system named is mice. The settings on record: cited from earlier work.
The subject of series [2] is individuals with NT1. The settings on record: initial clinical studies; cited from earlier work.

As for `COc1ccc(-c2cccc(C(=O)N(C)C)c2)cc1S(=O)(=O)Nc1cccc(NCCNC(=O)c2ccccc2N(C)C)c1` [YNT-185], the “sleep-onset REM periods and cataplexy-like events” value in series [1] (NT1 mouse model) is “decreases”. Further, in series [1] (intraperitoneally or ICV, wild type (WT) and orexin ligand-deficient mice), the wakefulness result is “modestly increases”.
Consider `COC(=O)N1CCC[C@H](NS(C)(=O)=O)[C@@H]1CO[C@H]1CC[C@@H](c2ccccc2)CC1` [TAK-925], for which the wakefulness result is recorded as “not” in series [1] (subcutaneous, OX2R-knockout mice); “modestly increased” in series [1] (subcutaneous, WT mice); “substantial levels of increased wakefulness” in series [2]. For the same compound, the cataplexy entry in series [2] is on record as “trends for decreasing cataplexy”.
